Source: PubChem BioAssay AID248 (DTP/NCI, 2004)
Where “and” joins values, the source holds several entries; their conditions need not be identical. Equal entries are not always repeated. Toxic doses and inconclusive results are not listed.

Tested on: L1210 leukemia ip in BDF1 mice, survival T/C
Assay: NCI In Vivo Anticancer Drug Screen. Data for tumor model L1210 Leukemia (intraperitoneal) in B6D2F1 (BDF1) mice
Details: endpoint: mean survival time, higher = longer survival
How it was run: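 Tumor was transplanted into mice, which were then dosed with test compound or vehicle alone. Survival was recorded for each group, and the treated figure was expressed relative to the control figure.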

[1] = dose: 100.0 mg/kg/injection, schedule: Q04DX003 (ip), vehicle: saline
[2] = dose: 100.0 mg/kg/injection, schedule: Q04DX003 (ip), vehicle: Klucel (hydroxypropylcellulose) (HPC)
[3] = dose: 200.0 mg/kg/injection, schedule: Q04DX003 (ip), vehicle: Klucel (hydroxypropylcellulose) (HPC)
[4] = dose: 400.0 mg/kg/injection, schedule: Q04DX003 (ip), vehicle: Klucel (hydroxypropylcellulose) (HPC)
[5] = dose: 100.0 mg/kg/injection, schedule: Q01DX009 (ip), vehicle: Klucel (hydroxypropylcellulose) (HPC)
[6] = dose: 200.0 mg/kg/injection, schedule: Q01DX009 (ip), vehicle: Klucel (hydroxypropylcellulose) (HPC)
[7] = dose: 100.0 mg/kg/injection, schedule: Q01DX001 (ip), vehicle: carboxymethylcellulose (CMC)
[8] = dose: 200.0 mg/kg/injection, schedule: Q01DX001 (ip), vehicle: carboxymethylcellulose (CMC)
[9] = dose: 400.0 mg/kg/injection, schedule: Q01DX001 (ip), vehicle: carboxymethylcellulose (CMC)
[10] = dose: 100.0 mg/kg/injection, schedule: Q01DX001 (ip), vehicle: saline
[11] = dose: 200.0 mg/kg/injection, schedule: Q01DX001 (ip), vehicle: saline

COC(CBr)OC was tested, and the T/C (dose: 10.0 mg/kg/injection, schedule: Q01DX009 (ip), vehicle: saline) was 95 % of control, the T/C (dose: 10.0 mg/kg/injection, schedule: Q04DX003 (ip), vehicle: saline) was 98 % of control and the T/C (dose: 20.0 mg/kg/injection, schedule: Q01DX009 (ip), vehicle: saline) was 95 % of control. For the same compound, the T/C (dose: 20.0 mg/kg/injection, schedule: Q04DX003 (ip), vehicle: saline) was 101 % of control, the T/C (dose: 25.0 mg/kg/injection, schedule: Q04DX003 (ip), vehicle: saline with Tween-80) was 98 % of control and the T/C (dose: 40.0 mg/kg/injection, schedule: Q01DX009 (ip), vehicle: saline) was 104 % of control. For the same compound, the T/C (dose: 40.0 mg/kg/injection, schedule: Q04DX003 (ip), vehicle: saline) was 108 % of control and the T/C (dose: 50.0 mg/kg/injection, schedule: Q04DX003 (ip), vehicle: saline with Tween-80) was 98 % of control.

For CC(C)C([NH-])=O.CC(C)C([NH-])=O.[Cl][Pt+2][Cl], the T/C (dose: 12.5 mg/kg/injection, schedule: Q04DX003 (ip), vehicle: saline) was 116 % of control, the T/C (dose: 25.0 mg/kg/injection, schedule: Q01DX009 (ip), vehicle: saline) was 102 % of control and the T/C (dose: 25.0 mg/kg/injection, schedule: Q04DX003 (ip), vehicle: saline) was 118 % of control. The T/C (dose: 50.0 mg/kg/injection, schedule: Q01DX009 (ip), vehicle: saline) was 89 % of control, the T/C (dose: 50.0 mg/kg/injection, schedule: Q04DX003 (ip), vehicle: saline) was 112 % of control and the T/C [1] was 108 % of control and 118 % of control.

In the case of COc1ccccc1NC(=O)OCC#CCOC(=O)Nc1ccccc1OC, the T/C [2] is reported as 91 % of control, the T/C [3] is reported as 95 % of control and the T/C [4] is reported as 91 % of control.

With Nc1ncncc1-c1ccccc1[N+](=O)[O-] the T/C (dose: 50.0 mg/kg/injection, schedule: Q01DX009 (ip), vehicle: Klucel (hydroxypropylcellulose) (HPC)) was 98 % of control, the T/C [5] was 98 % of control and the T/C [6] was 102 % of control.

With O=c1[nH]c2c(Br)c([N+](=O)[O-])c(Br)cc2c2ccc(Br)cc12 the T/C [7] was 100 % of control, the T/C [8] was 98 % of control and the T/C [9] was 91 % of control.

With Nc1cccc(OCCCCCOc2cccc(N)c2)c1 the T/C [5] was 93 % of control and the T/C [6] was 96 % of control.

For CC1(C)N=C(N)N=C(N)N1c1ccc(CCc2ccc(S(=O)(=O)F)cc2)cc1, the T/C (dose: 100.0 mg/kg/injection, schedule: Q01DX001 (ip), vehicle: saline with Tween-80) was 97 % of control, the T/C (dose: 200.0 mg/kg/injection, schedule: Q01DX001 (ip), vehicle: saline with Tween-80) was 97 % of control and the T/C (dose: 400.0 mg/kg/injection, schedule: Q01DX001 (ip), vehicle: saline with Tween-80) was 102 % of control.

For O=C(O)CC1(C(=O)O)CCN(Cc2ccccc2)CC1, the T/C [2] was 103 % of control, the T/C [3] was 102 % of control and the T/C [4] was 100 % of control.

With COc1c(NC(=O)CC(C)=O)ccc2c(C)cc(=O)n(C)c12 the T/C (dose: 50.0 mg/kg/injection, schedule: Q01DX001 (ip), vehicle: Klucel (hydroxypropylcellulose) (HPC)) was 103 % of control, the T/C (dose: 100.0 mg/kg/injection, schedule: Q01DX001 (ip), vehicle: Klucel (hydroxypropylcellulose) (HPC)) was 99 % of control and the T/C (dose: 200.0 mg/kg/injection, schedule: Q01DX001 (ip), vehicle: Klucel (hydroxypropylcellulose) (HPC)) was 100 % of control.

For O=S(=O)(c1ccccc1)n1c(C(O)c2cccnc2)cc2ccccc21 (configuration not stated), the T/C (dose: 100.0 mg/kg/injection, schedule: Q04DX002 (ip), vehicle: saline with Tween-80) was 93 % of control, the T/C (dose: 200.0 mg/kg/injection, schedule: Q04DX002 (ip), vehicle: saline with Tween-80) was 100 % of control and the T/C (dose: 400.0 mg/kg/injection, schedule: Q04DX002 (ip), vehicle: saline with Tween-80) was 90 % of control.

OC(CN1CC1)c1ccccc1 (configuration not stated) was tested, and the T/C (dose: 20.0 mg/kg/injection, schedule: Q01DX009 (ip), vehicle: Klucel (hydroxypropylcellulose) (HPC)) was 95 % of control, the T/C (dose: 20.0 mg/kg/injection, schedule: Q04DX003 (ip), vehicle: Klucel (hydroxypropylcellulose) (HPC)) was 97 % of control and the T/C (dose: 40.0 mg/kg/injection, schedule: Q01DX009 (ip), vehicle: Klucel (hydroxypropylcellulose) (HPC)) was 95 % of control. The T/C (dose: 40.0 mg/kg/injection, schedule: Q04DX003 (ip), vehicle: Klucel (hydroxypropylcellulose) (HPC)) was 102 % of control and the T/C (dose: 80.0 mg/kg/injection, schedule: Q04DX003 (ip), vehicle: Klucel (hydroxypropylcellulose) (HPC)) was 97 % of control.

In the case of CC(C)CC(N)C(=O)NCCCCCCNCCCCCCNC(=O)C(N)CC(C)C (configuration not stated), the T/C (dose: 50.0 mg/kg/injection, schedule: Q01DX001 (ip), vehicle: saline) is reported as 103 % of control, the T/C [10] is reported as 105 % of control and the T/C [11] is reported as 102 % of control.

With O=C(O)C1CCCN1O (configuration not stated) the T/C [10] was 104 % of control, the T/C [11] was 98 % of control and the T/C (dose: 400.0 mg/kg/injection, schedule: Q01DX001 (ip), vehicle: saline) was 98 % of control.

For COc1cc(C(C)S(=O)(=O)c2ccc(C)cc2)ccc1O (configuration not stated), the T/C [7] was 89 % of control, the T/C [8] was 93 % of control and the T/C [9] was 93 % of control.

With CCCCCCNC(C)(C)[P+](=O)O the T/C [1] was 105 % of control, the T/C (dose: 200.0 mg/kg/injection, schedule: Q04DX003 (ip), vehicle: saline) was 108 % of control and the T/C (dose: 400.0 mg/kg/injection, schedule: Q04DX003 (ip), vehicle: saline) was 102 % of control.

For O=c1[nH]nc(Br)c(=O)n1C(c1ccccc1)c1ccccc1, the T/C (dose: 22.0 mg/kg/injection, schedule: Q01DX015 (ip), vehicle: carboxymethylcellulose (CMC)) was 89 % of control, the T/C (dose: 33.0 mg/kg/injection, schedule: Q01DX015 (ip), vehicle: carboxymethylcellulose (CMC)) was 97 % of control and the T/C (dose: 44.0 mg/kg/injection, schedule: Q01DX001 (ip), vehicle: carboxymethylcellulose (CMC)) was 97 % of control and 101 % of control. For the same compound, the T/C (dose: 50.0 mg/kg/injection, schedule: Q01DX015 (ip), vehicle: carboxymethylcellulose (CMC)) was 95 % of control, the T/C (dose: 66.0 mg/kg/injection, schedule: Q01DX001 (ip), vehicle: carboxymethylcellulose (CMC)) was 94 % of control and 98 % of control and the T/C (dose: 75.0 mg/kg/injection, schedule: Q01DX015 (ip), vehicle: carboxymethylcellulose (CMC)) was 97 % of control. For the same compound, the T/C (dose: 150.0 mg/kg/injection, schedule: Q01DX001 (ip), vehicle: carboxymethylcellulose (CMC)) was 95 % of control and 96 % of control, the T/C [8] was 154 % of control and the T/C [9] was 96 % of control.

With COc1ccc(CCN=C(N)CCl)cc1 the T/C (dose: 100.0 mg/kg/injection, schedule: Q04DX002 (ip), vehicle: saline) was 95 % of control and the T/C (dose: 200.0 mg/kg/injection, schedule: Q04DX002 (ip), vehicle: saline) was 106 % of control.

In the case of COc1ccc(C2=CCCC2)cc1, the T/C [7] is reported as 91 % of control, the T/C [5] is reported as 89 % of control and the T/C [2] is reported as 96 % of control. For the same compound, the T/C [8] was 94 % of control, the T/C [6] was 102 % of control and the T/C [3] was 101 % of control. For the same compound, the T/C [9] was 96 % of control, the T/C (dose: 400.0 mg/kg/injection, schedule: Q01DX009 (ip), vehicle: Klucel (hydroxypropylcellulose) (HPC)) was 89 % of control and the T/C [4] was 102 % of control.

With O=C1OC(=O)C2C3C=CC(C12)C1C2C(=O)OC(=O)C2C31 (configuration not stated) the T/C (dose: 100.0 mg/kg/injection, schedule: Q04DX003 (ip), vehicle: saline with Tween-80) was 94 % of control, the T/C (dose: 200.0 mg/kg/injection, schedule: Q04DX003 (ip), vehicle: saline with Tween-80) was 94 % of control and the T/C (dose: 400.0 mg/kg/injection, schedule: Q04DX003 (ip), vehicle: saline with Tween-80) was 91 % of control.

For Cc1nc(SCc2ccc(Cl)cc2)[nH]c(=O)c1CCO, the T/C (dose: 100.0 mg/kg/injection, schedule: Q01DX009 (ip), vehicle: saline with Tween-80) was 92 % of control, the T/C (dose: 200.0 mg/kg/injection, schedule: Q01DX009 (ip), vehicle: saline with Tween-80) was 92 % of control and the T/C (dose: 400.0 mg/kg/injection, schedule: Q01DX009 (ip), vehicle: saline with Tween-80) was 92 % of control.

In the case of C1CN2CCN1CC2, the T/C (dose: 37.5 mg/kg/injection, schedule: Q01DX009 (ip), vehicle: Klucel (hydroxypropylcellulose) (HPC)) is reported as 91 % of control, the T/C (dose: 75.0 mg/kg/injection, schedule: Q01DX009 (ip), vehicle: Klucel (hydroxypropylcellulose) (HPC)) is reported as 91 % of control and the T/C (dose: 150.0 mg/kg/injection, schedule: Q01DX009 (ip), vehicle: Klucel (hydroxypropylcellulose) (HPC)) is reported as 89 % of control. The T/C (dose: 300.0 mg/kg/injection, schedule: Q01DX009 (ip), vehicle: Klucel (hydroxypropylcellulose) (HPC)) was 94 % of control.

For Cc1cccc(NC(=O)c2ccc(Cl)cc2Cl)n1 (tested in a mixture with another compound), the T/C (dose: 100.0 mg/kg/injection, schedule: Q04DX002 (ip), vehicle: Klucel (hydroxypropylcellulose) (HPC)) was 103 % of control, the T/C (dose: 200.0 mg/kg/injection, schedule: Q04DX002 (ip), vehicle: Klucel (hydroxypropylcellulose) (HPC)) was 103 % of control and the T/C (dose: 400.0 mg/kg/injection, schedule: Q04DX002 (ip), vehicle: Klucel (hydroxypropylcellulose) (HPC)) was 92 % of control.
